Reference: paper PMC6036117, “Structural Insight Into Conformational Changes Induced by ATP Binding in a Type III Secretion-Associated ATPase From Shigella flexneri” (Frontiers in Microbiology, 2018)
Where two headings read alike, the source gives them in different places.

Assays:
Spa47Δ1-83 = target: T1, Spa47Δ1-83 (Shigella flexneri, UniProt P0A1C1); assay: Isothermal titration calorimetry (ITC) of nucleotide binding to monomeric Spa47Δ1-83; conditions: for Ka (affinity constant) / ΔH (enthalpy variation) / ΔS (entropy variation): ATP without Mg2+, other ligands with Mg2+
T1 construct: The cDNA encoding Spa47Δ1-83 (84–430 aa) was amplified; 6xHis (pET28a, thrombin site) (N, cleaved yes); made in house; host or cells: E. coli Rosetta (DE3)
Method: An isothermal titration calorimetry (ITC) assay was performed with a MicroCalTM iTC200 calorimeter (MicroCal, USA) at 25°C. Both the protein and the ATP homolog were dissolved in the same buffer (20 mM Tris-HCl, pH = 8.0, 100 mM NaCl, 5 mM MgCl2). The concentrations of Spa47Δ1-83 and the mutants were between 0.03 and 0.04 mM. The concentration of ATP analogs was between 1 and 2 mM. Titration consisted of 18 consecutive 2-μl injections of ATP analogs with a 120-s interval between injections using a stir rate of 600 rpm. The dilution heat of the ligand was measured by adding ligand to a buffer solution under these conditions, and the injection schedule was identical to that used for the protein sample. For titration of the protein with ATP, MgCl2 was omitted in the buffer. Data acquisition and analysis were performed using Origin software. A single binding site model was used for nonlinear curve fitting. ITC experiments were repeated twice for each ligand.

muscle creatine kinase = target: muscle creatine kinase; set-up: method as in Forstner et al., 1999; conditions: ATP binding; ref Forstner et al., 1999; cited from earlier work
p97 = target: p97; set-up: method as in Tang et al., 2010; conditions: ATP binding; ref Tang et al., 2010; cited from earlier work
[1] = target: subunit B of the A1A0 ATP synthase; set-up: method as in Kumar et al., 2009; conditions: ATP binding; ref Kumar et al., 2009; cited from earlier work
[2] = ITC, 25°C, 20 mM Tris-HCl pH 8.0, 100 mM NaCl, 5 mM MgCl2 (MgCl2 omitted for ATP), single binding site model, Kd calculated as 1/Ka, read-out: Kd (apparent dissociation constant)

SMILES | Kd (Spa47Δ1-83; [2]) [µM] | Ka (affinity constant) (Spa47Δ1-83; ITC, 25°C) | ΔH (enthalpy variation) (Spa47Δ1-83; ITC, 25°C) [kcal/mol] | ΔS (entropy variation) (Spa47Δ1-83; ITC, 25°C) [cal/mole/deg] | Kd (Spa47Δ1-83; ITC, 25°C, 20 mM Tris-HCl pH 8.0, 100 mM NaCl, 5 mM MgCl2 (MgCl2 omitted for ATP), single binding site model, Kd calculated as 1/Ka, listed as AMP-PNP, read-out: Kd (apparent dissociation constant)) [µM] | fold lower binding affinity than ATP and ATPγS (Spa47Δ1-83; ITC, relative to the affinity measured for ATP and ATPγS) | Kd (muscle creatine kinase) [µM] | Kd (p97) [µM] | Kd [1] [µM] | Kd (Spa47Δ1-83) [µM]
Nc1ncnc2c1ncn2[C@@H]1O[C@H](COP(=O)(O)OP(=O)(O)O)[C@@H](O)[C@H]1O [ADP] | 150 ± 6.03 | 0.067±0.003 10^5. M^-1 | -17.24 ± 3.82 | -40.30 | – | – | – | – | – | –
Nc1ncnc2c1ncn2[C@@H]1O[C@H](COP(=O)(O)OP(=O)(O)NP(=O)(O)O)[C@@H](O)[C@H]1O [AMPPNP] | 322 ± 12.6 | 0.031±0.001 10^5. M^-1 | -7.21 ± 0.11 | -8.20 | 322 ± 12.6 | ~ 15 fold | – | – | – | –
Nc1ncnc2c1ncn2[C@@H]1O[C@H](COP(=O)(O)OP(=O)(O)OP(=O)(O)O)[C@@H](O)[C@H]1O [ATP] | 23.1 ± 3.44 | 0.443±0.070 10^5. M^-1 | -4.99 ± 0.53 | 4.50 | – | – | 4 to 16 | 0.89 | 22 | –
Nc1ncnc2c1ncn2[C@@H]1O[C@H](CO[P@](=O)(O)O[P@](=O)(O)O[P@@](=O)(O)S)[C@@H](O)[C@H]1O [ATPγS] | – | 0.472±0.017 10^5. M^-1 | -8.16 ± 0.16 | -6.00 | – | – | – | – | – | 21.2 ± 0.8
